Laboratory results reported in patent US20120245137A1 (Zalicus Pharmaceuticals Ltd., priority 2009, published 2012).
pIC50: −log10 of the molar value. Read-outs that look alike come from different tables or passages of the source.

Experiments:
Format in all cases: cell-based
[1] = biological target: CAv1.2 (Homo sapiens, UniProt Q13936); assay: L-type (CAv1.2) channel blocking, FLIPR data (Table 6)
[2] = biological target: T-type calcium channel (Homo sapiens, UniProt O95180); assay: T-type channel blocking, FLIPR data (Table 6); conditions: for CAv3.2 IC50 Ratio closed/inact.: CAv3.2, ratio closed/inact.
Excerpt: (§1) Another method, high-throughput spectrophotometric assay, utilizes loading of the cell lines with a fluorescent dye sensitive to intracellular calcium concentration and subsequent examination of the effects of compounds on the ability of depolarization by potassium chloride or other means to alter intracellular calcium levels.

[3] = biological target: T-type calcium channel (Homo sapiens, UniProt O43497); assay: T-type channel blocking, FLIPR data (Table 6); conditions: CAv3.1
Excerpt: as §1

[4] = biological target: Human Cav 2.2 channels (Homo sapiens, UniProt Q00975); assay: Fluorescent assay for CaV2.2 channels using potassium depolarization (VIPR/FLIPR); conditions: FLIPR data
How it was run: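 Fluo-4 calcium fluorescence (480/535 nm) was recorded on VIPR or FLIPR after depolarization to 70 mM final potassium. Before this, cells were preincubated 30 min at 25 °C with compound in 4–30 mM potassium, so that state-dependent block could be assessed; the cells were HEK293 coexpressing Cav2.2, α2δ, β and Kir2.3.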

[5] = closed state, read-out: CAv1.2 IC50 Closed
[6] = inactivated state, read-out: CAv1.2 IC50 Inact.
[7] = CAv3.2, closed state, read-out: CAv3.2 IC50 Closed
[8] = CAv3.2, inactivated state, read-out: CAv3.2 IC50 Inact.
[9] = closed state, read-out: CAv2.2 IC50 Closed
[10] = inactivated state, read-out: CAv2.2 IC50 Inact.

Chain of T-type calcium channel (Homo sapiens, UniProt O95180) (O95180 whole entry): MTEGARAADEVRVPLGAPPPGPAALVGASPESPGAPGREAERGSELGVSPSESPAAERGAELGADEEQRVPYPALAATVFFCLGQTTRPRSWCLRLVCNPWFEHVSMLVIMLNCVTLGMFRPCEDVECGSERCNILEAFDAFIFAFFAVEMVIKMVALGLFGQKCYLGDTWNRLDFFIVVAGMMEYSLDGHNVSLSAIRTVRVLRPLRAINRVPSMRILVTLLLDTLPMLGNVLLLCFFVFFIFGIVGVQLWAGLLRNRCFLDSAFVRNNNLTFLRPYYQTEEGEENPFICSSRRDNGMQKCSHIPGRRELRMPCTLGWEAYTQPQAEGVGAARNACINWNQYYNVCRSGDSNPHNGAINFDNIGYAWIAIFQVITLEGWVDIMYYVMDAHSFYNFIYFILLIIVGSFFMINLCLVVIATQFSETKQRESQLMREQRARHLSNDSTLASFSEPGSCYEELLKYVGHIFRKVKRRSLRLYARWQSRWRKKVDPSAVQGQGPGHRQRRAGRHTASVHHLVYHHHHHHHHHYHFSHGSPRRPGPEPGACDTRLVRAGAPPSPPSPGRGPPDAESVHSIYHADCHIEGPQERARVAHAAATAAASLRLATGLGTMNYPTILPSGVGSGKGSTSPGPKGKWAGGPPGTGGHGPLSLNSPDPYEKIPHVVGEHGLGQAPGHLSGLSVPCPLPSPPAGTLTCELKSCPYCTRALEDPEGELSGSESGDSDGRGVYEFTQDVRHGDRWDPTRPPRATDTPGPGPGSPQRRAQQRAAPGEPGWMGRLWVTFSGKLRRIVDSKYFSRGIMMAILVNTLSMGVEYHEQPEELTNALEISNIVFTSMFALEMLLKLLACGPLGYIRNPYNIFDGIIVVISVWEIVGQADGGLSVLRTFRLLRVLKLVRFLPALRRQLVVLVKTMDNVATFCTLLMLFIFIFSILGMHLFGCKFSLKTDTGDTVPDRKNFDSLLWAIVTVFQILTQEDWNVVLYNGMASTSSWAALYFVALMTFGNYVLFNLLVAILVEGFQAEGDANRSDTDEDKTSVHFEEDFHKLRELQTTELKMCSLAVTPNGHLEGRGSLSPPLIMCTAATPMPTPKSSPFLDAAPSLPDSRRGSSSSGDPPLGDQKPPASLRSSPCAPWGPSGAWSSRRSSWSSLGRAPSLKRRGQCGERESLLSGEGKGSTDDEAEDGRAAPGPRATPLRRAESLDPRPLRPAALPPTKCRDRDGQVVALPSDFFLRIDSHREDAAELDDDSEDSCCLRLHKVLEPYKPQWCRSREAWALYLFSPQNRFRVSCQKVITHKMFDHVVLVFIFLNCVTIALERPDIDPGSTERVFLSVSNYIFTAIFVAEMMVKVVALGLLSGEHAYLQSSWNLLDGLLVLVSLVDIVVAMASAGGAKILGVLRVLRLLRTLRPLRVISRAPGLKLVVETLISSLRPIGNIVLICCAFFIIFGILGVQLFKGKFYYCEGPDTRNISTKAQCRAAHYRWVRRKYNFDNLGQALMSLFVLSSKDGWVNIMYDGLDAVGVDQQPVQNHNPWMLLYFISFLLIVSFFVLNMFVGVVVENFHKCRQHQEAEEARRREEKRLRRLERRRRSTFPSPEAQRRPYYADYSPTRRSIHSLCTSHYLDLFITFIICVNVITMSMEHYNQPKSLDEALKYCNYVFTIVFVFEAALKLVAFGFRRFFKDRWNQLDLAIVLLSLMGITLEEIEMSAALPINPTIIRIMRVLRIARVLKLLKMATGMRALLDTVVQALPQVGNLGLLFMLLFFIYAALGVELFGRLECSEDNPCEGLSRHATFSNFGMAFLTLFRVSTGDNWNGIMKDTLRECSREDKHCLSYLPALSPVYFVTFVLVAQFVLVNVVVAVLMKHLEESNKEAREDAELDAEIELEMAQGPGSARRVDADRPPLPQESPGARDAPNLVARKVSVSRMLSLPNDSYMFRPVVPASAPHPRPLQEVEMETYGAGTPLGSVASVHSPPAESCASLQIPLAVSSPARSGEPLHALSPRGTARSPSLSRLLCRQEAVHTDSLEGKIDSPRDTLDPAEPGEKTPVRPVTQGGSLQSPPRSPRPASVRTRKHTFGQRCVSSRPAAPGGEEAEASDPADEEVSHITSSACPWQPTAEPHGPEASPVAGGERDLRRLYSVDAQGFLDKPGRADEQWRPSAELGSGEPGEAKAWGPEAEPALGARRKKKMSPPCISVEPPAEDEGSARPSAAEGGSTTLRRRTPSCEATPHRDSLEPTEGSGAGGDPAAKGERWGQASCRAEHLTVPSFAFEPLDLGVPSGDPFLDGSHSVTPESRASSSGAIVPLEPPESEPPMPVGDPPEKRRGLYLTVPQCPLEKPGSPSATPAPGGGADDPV
Chain of T-type calcium channel (Homo sapiens, UniProt O43497) (O43497 whole entry): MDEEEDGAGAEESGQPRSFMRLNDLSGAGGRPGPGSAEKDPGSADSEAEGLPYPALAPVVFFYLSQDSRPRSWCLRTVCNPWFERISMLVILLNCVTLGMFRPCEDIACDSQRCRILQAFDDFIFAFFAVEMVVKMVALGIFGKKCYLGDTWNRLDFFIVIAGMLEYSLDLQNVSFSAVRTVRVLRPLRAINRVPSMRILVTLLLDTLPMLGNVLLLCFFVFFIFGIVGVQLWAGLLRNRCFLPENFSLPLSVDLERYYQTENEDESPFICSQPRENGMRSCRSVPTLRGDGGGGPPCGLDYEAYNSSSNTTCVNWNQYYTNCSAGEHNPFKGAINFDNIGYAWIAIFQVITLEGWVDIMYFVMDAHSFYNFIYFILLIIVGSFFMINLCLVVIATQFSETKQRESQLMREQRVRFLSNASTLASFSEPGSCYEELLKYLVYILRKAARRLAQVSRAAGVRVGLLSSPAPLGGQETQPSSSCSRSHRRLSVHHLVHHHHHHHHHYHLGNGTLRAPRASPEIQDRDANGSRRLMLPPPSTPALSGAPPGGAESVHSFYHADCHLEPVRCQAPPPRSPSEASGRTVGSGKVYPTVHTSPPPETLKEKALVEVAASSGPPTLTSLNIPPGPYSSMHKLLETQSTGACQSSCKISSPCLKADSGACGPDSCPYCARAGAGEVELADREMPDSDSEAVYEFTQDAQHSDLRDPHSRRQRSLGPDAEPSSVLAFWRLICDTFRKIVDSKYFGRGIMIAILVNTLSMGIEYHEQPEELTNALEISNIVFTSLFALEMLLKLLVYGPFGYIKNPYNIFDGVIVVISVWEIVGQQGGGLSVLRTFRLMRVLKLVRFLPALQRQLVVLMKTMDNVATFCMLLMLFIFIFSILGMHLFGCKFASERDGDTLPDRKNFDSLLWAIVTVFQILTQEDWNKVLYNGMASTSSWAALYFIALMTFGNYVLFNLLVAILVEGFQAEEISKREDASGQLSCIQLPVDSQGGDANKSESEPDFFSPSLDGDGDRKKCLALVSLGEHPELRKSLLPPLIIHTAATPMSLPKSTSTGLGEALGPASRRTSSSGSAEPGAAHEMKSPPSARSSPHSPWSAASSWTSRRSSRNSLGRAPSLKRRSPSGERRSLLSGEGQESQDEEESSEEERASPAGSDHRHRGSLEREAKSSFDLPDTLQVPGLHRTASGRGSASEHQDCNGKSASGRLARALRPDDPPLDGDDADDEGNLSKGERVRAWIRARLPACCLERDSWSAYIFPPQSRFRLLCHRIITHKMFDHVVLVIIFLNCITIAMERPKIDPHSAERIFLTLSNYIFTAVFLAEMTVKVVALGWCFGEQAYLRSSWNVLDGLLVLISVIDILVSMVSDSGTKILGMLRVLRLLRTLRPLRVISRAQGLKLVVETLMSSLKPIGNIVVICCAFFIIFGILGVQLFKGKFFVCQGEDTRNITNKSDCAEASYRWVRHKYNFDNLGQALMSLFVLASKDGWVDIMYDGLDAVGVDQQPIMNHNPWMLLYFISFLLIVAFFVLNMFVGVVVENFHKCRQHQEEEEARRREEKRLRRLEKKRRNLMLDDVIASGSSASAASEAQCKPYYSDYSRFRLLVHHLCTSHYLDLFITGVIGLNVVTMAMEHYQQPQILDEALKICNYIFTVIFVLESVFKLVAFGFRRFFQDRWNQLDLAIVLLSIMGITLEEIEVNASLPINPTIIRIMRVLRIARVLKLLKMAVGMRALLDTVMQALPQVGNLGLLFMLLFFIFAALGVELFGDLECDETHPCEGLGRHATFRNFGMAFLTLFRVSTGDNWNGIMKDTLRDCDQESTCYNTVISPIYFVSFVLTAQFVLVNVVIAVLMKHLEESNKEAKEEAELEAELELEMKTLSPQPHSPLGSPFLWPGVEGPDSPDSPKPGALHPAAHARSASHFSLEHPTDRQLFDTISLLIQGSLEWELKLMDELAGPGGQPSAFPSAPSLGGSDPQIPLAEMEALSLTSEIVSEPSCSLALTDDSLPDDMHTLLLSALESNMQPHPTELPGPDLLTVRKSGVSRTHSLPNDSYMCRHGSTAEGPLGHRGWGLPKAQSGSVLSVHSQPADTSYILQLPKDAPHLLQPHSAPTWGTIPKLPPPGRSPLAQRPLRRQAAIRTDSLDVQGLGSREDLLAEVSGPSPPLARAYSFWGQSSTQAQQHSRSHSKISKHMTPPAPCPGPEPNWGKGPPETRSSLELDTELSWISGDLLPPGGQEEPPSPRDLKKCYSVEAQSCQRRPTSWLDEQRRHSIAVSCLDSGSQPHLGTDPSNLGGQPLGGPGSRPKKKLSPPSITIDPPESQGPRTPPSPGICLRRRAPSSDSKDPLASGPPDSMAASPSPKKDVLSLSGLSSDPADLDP

Row | SMILES | pIC50 [1, 5] | pIC50 [1, 6] | pIC50 [2, 7] | pIC50 [2, 8] | CAv3.2 IC50 Ratio closed/inact. [2] | pIC50 [3] | pIC50 [4, 9] | pIC50 [4, 10] | CAv2.2 IC50 Ratio closed/inact. [4] | CAv1.2 IC50 Ratio closed/inact. [1]
1 | Cn1nc(C(F)(F)F)cc1C(=O)N1CC(CS(=O)(=O)c2cc(F)cc(C(F)(F)F)c2)C1 [Compound 748] | ≤ 5.00 | ≤ 5.00 | ≤ 5.00 | 5.07 | 1.2 | ≤ 5.00 | 5.00 | 5.28 | 1.9 | –
2 | CC(C)([C@H]1C[C@H](CNc2ccc(F)c(Cl)c2)C1)S(=O)(=O)c1cccc(C(F)(F)F)c1 [Compound 750] | 5.47 | 6.00 | ≤ 5.00 | 6.13 | 13.5 | 5.47 | 5.63 | 6.77 | 13.7 | 3.5
3 | CC(C)([C@H]1C[C@H](CNc2ccc(Cl)c(F)c2)C1)S(=O)(=O)c1cccc(C(F)(F)F)c1 [Compound 751] | 5.33 | 5.87 | ≤ 5.00 | 5.83 | 6.8 | 5.34 | 5.41 | 6.52 | 13.1 | 3.5
4 | CC(C)([C@H]1C[C@H](CNc2cc(C(F)(F)F)n[nH]2)C1)S(=O)(=O)c1cccc(C(F)(F)F)c1 [Compound 752] | 5.07 | 5.55 | 5.23 | 5.73 | 3.1 | 5.31 | 5.43 | 6.55 | 13.2 | 3.1
5 | CC(C)([C@H]1C[C@@H](CNc2ccc(F)c(Cl)c2)C1)S(=O)(=O)c1cccc(C(F)(F)F)c1 [Compound 753] | 5.13 | 5.82 | ≤ 5.00 | 5.79 | 6.1 | 5.35 | 5.42 | 6.48 | 11.5 | 4.9
6 | CC(C)([C@H]1C[C@@H](CNc2cc(C(F)(F)F)n[nH]2)C1)S(=O)(=O)c1cccc(C(F)(F)F)c1 [Compound 755] | 5.09 | 5.41 | ≤ 5.00 | 5.60 | 4 | 5.28 | 5.35 | 6.12 | 6 | 2.1
7 | CC(C)([C@H]1C[C@@H](C(=O)Nc2ccc(C(F)(F)F)cc2)C1)S(=O)(=O)c1cccc(C(F)(F)F)c1 [Compound 756] | 5.38 | 5.86 | 5.45 | 5.92 | 2.9 | 5.80 | 5.41 | 6.41 | 10 | 3.1
8 | CC(C)([C@H]1C[C@@H](C(=O)Nc2cc(C(F)(F)F)n[nH]2)C1)S(=O)(=O)c1cccc(C(F)(F)F)c1 [Compound 757] | ≤ 5.00 | 5.27 | 5.22 | 5.64 | 2.6 | 5.65 | 5.24 | 6.26 | 10.5 | 1.9
9 | CC(C)([C@H]1C[C@@H](C(=O)Nc2ccc(C(F)(F)F)cn2)C1)S(=O)(=O)c1cccc(C(F)(F)F)c1 [Compound 758] | 5.45 | 5.73 | 5.39 | 5.71 | 2.1 | 5.67 | 5.60 | 6.41 | 6.5 | 1.9
